Values of other authors as cited in patent US6652882B1, “Controlled release formulation containing bupropion” (Intellipharmaceutics Corp, priority 1997, dated 2003).

Tests used:
[1] = oral administration; mammals such as rats and dogs
[2] = during storage

- absolute bioavailability [1]: 5% to 20
SMILES: CC(NC(C)(C)C)C(=O)c1cccc(Cl)c1 (racemic) [Bupropion, (±)-2-(tert-butylamino)3′-chloropropiophenone]
- stability on storage [2]: subject to hydrolytic decomposition during storage
